Source: ChEMBL document CHEMBL4680171, “Oxadiazolylthiazoles as novel and selective antifungal agents” (Eur J Med Chem, 2020)
In brackets after ≈: the same amount, converted by molar mass. Activity calls are given as the source filed them. The rule behind the calls is not given here.

Experiments:
Staphylococcus aureus = test: Antibacterial activity against methicillin resistant Staphylococcus aureus subsp. aureus USA300 assessed as reduction in bacterial growth by CLSI based broth microdilution method; format: functional
Escherichia coli [1] = test: Antibacterial activity against Escherichia coli JW55031 harboring tolC mutation assessed as reduction in bacterial growth by CLSI based broth microdilution method; format: functional
Escherichia coli [2] = test: Antibacterial activity against Escherichia coli BW25113 assessed as reduction in bacterial growth by CLSI based broth microdilution method; format: functional
Clostridioides difficile = test: Antibacterial activity against Clostridium difficile BAA1870 assessed as reduction in bacterial growth by CLSI based broth microdilution method; format: functional
Candida albicans [3] = test: Antifungal activity against Candida albicans SS5314 assessed as reduction in fungal growth by CLSI based broth microdilution method; format: functional
Candida albicans [4] = test: Antifungal activity against Candida albicans ATCC 10231 assessed as reduction in fungal growth incubated for 24 hrs by CLSI based broth microdilution method; format: functional
Candida albicans [5] = test: Antifungal activity against fluconazole-resistant Candida albicans NR29448 assessed as reduction in fungal growth incubated for 24 hrs by CLSI based broth microdilution method; format: functional
[Candida] auris [6] = Antifungal activity against fluconazole-resistant Candida auris 381 assessed as reduction in fungal growth incubated for 24 hrs by CLSI based broth microdilution method; format: functional; conditions: Candidozyma auris
[Candida] auris [7] = Antifungal activity against fluconazole-resistant Candida auris 383 assessed as reduction in fungal growth incubated for 24 hrs by CLSI based broth microdilution method; format: functional; conditions: Candidozyma auris
[Candida] auris [8] = Antifungal activity against fluconazole-resistant Candida auris 384 assessed as reduction in fungal growth incubated for 24 hrs by CLSI based broth microdilution method; format: functional; conditions: Candidozyma auris
Nakaseomyces glabratus [9] = test: Antifungal activity against Candida glabrata ATCC 66032 assessed as reduction in fungal growth incubated for 24 hrs by CLSI based broth microdilution method; format: functional
Nakaseomyces glabratus [10] = test: Antifungal activity against Candida glabrata ATCC MYA-2950 assessed as reduction in fungal growth incubated for 24 hrs by CLSI based broth microdilution method; format: functional
Candida parapsilosis [11] = test: Antifungal activity against Candida parapsilosis ATCC 22019 assessed as reduction in fungal growth incubated for 24 hrs by CLSI based broth microdilution method; format: functional; conditions: Lodderomyces parapsilosis
Candida parapsilosis [12] = test: Antifungal activity against Candida parapsilosis CAB 502638 assessed as reduction in fungal growth incubated for 24 hrs by CLSI based broth microdilution method; format: functional; conditions: Lodderomyces parapsilosis
Pichia kudriavzevii [13] = test: Antifungal activity against Candida krusei CAB 396420 assessed as reduction in fungal growth incubated for 24 hrs by CLSI based broth microdilution method; format: functional
Pichia kudriavzevii [14] = test: Antifungal activity against Candida krusei ATCC 34135 assessed as reduction in fungal growth incubated for 24 hrs by CLSI based broth microdilution method; format: functional
Cryptococcus neoformans [15] = test: Antifungal activity against Cryptococcus neoformans NR41298 assessed as reduction in fungal growth incubated for 48 hrs by CLSI based broth microdilution method; format: functional
Cryptococcus neoformans [16] = test: Antifungal activity against Cryptococcus neoformans NR41300 assessed as reduction in fungal growth incubated for 48 hrs by CLSI based broth microdilution method; format: functional
Cryptococcus neoformans [17] = test: Antifungal activity against Cryptococcus neoformans NR48770 assessed as reduction in fungal growth incubated for 48 hrs by CLSI based broth microdilution method; format: functional
[18] = test system: Cryptococcus gattii species complex; test: Antifungal activity against Cryptococcus gattii NR43210 assessed as reduction in fungal growth incubated for 48 hrs by CLSI based broth microdilution method; format: functional, Cryptococcus bacillisporus
[19] = test system: Cryptococcus gattii species complex; test: Antifungal activity against Cryptococcus gattii NR43209 assessed as reduction in fungal growth incubated for 48 hrs by CLSI based broth microdilution method; format: functional, Cryptococcus bacillisporus
Lactobacillus gasseri = test: Antibacterial activity against Lactobacillus gasseri HM-400 assessed as reduction in bacterial growth by CLSI based assay
Lacticaseibacillus casei = test: Antibacterial activity against Lactobacillus casei HM-334 assessed as reduction in bacterial growth by CLSI based assay; format: organism-based
Lactobacillus crispatus = test: Antibacterial activity against Lactobacillus crispatus HM-370 assessed as reduction in bacterial growth by CLSI based assay
[20] = Cytotoxicity against African green monkey Vero cells assessed as reduction in cell viability incubated for 2 hrs by MTS assay; format: cell-based; conditions: chlorocebus sabaeus
Candida albicans [21] = test: Fungicidal activity against Candida albicans SS5314 assessed as eradication of fungal count at 5XMIC measured after 2 hrs by time kill assay relative to control; format: functional
Vero = test: Cytotoxicity against African green monkey Vero cells assessed as reduction in cell viability at 16 ug/ml incubated for 2 hrs by MTS assay; format: cell-based; conditions: chlorocebus sabaeus, dose 16 µg/ml
Candida albicans [22] = test: Antifungal activity against Candida albicans SS5314 assessed as reduction in fungal growth incubated for 24 hrs by CLSI based broth microdilution method; format: functional
Aspergillus fumigatus [23] = test: Antifungal activity against Aspergillus fumigatus NR 35303 assessed as reduction in fungal growth incubated for 24 hrs by CLSI based broth microdilution method; format: functional
Aspergillus fumigatus [24] = test: Antifungal activity against Aspergillus fumigatus NR 35304 assessed as reduction in fungal growth incubated for 24 hrs by CLSI based broth microdilution method; format: functional
Candida albicans [25] = test: Antibiofilm activity against Candida albicans NR29448 assessed as reduction in biofilm formation at 0.5XMIC incubated for 24 hrs by crystal violet staining based assay relative to control; format: functional
Candida albicans [26] = test: Antibiofilm activity against 24 hrs preformed biofilm of Candida albicans NR29448 assessed as disruption of mature biofilm at 64 ug/ml incubated for 24 hrs by crystal violet staining based spectrophotometry relative to control; format: functional; conditions: dose 64.0 µg/ml
Candida albicans [27] = test: Fungistatic activity against Candida albicans SS5314 at 5 to 10x MIC measured for 36 hrs by time kill assay; format: functional, organism-based
Candida albicans [28] = test: Antifungal activity against Candida albicans SS5314 assessed as reduction in fungal growth measured after 10 passages by CLSI based broth microdilution method; format: functional, organism-based

Cc1nc(-c2ccc(C(C)(C)C)cc2)sc1-c1nnc(NCC(O)CO)o1 (configuration not stated)
MIC (Staphylococcus aureus): > 64 µg/mL
MIC (Escherichia coli [1]): > 64 µg/mL
MIC (Escherichia coli [2]): > 64 µg/mL
MIC (Clostridioides difficile): 32 µg/mL (≈ 82.4 µM)
MIC (Candida albicans [3]): > 64 µg/mL

Cc1nc(-c2ccc(C(C)(C)C)cc2)sc1-c1nnc(N[C@H]2CC[C@H](N)CC2)o1
MIC (Staphylococcus aureus): 32 µg/mL (≈ 77.8 µM)
MIC (Escherichia coli [1]): 32 µg/mL (≈ 77.8 µM)
MIC (Escherichia coli [2]): > 64 µg/mL
MIC (Clostridioides difficile): 8 µg/mL (≈ 19.4 µM)
MIC (Candida albicans [3]): 8 µg/mL (≈ 19.4 µM)

Cc1nc(-c2ccc(C(C)(C)C)cc2)sc1-c1nnc(N2CCC[C@@H]2C(N)=O)o1
MIC (Staphylococcus aureus): > 64 µg/mL
MIC (Escherichia coli [1]): > 64 µg/mL
MIC (Escherichia coli [2]): > 64 µg/mL
MIC (Clostridioides difficile): 32 µg/mL (≈ 77.8 µM)
MIC (Candida albicans [3]): > 64 µg/mL

Cc1nc(-c2ccc(C(C)(C)C)cc2)sc1-c1nnc(NC(CO)CO)o1
MIC (Staphylococcus aureus): > 64 µg/mL
MIC (Escherichia coli [1]): > 64 µg/mL
MIC (Escherichia coli [2]): > 64 µg/mL
MIC (Clostridioides difficile): > 64 µg/mL
MIC (Candida albicans [3]): > 64 µg/mL

C[C@@H]1[C@H](O)[C@@H](C)/C=C/C=C/C=C/C=C/C=C/C=C/C=C/[C@H](O[C@@H]2O[C@H](C)[C@@H](O)[C@H](N)[C@@H]2O)C[C@@H]2O[C@](O)(C[C@@H](O)C[C@@H](O)[C@H](O)CC[C@@H](O)C[C@@H](O)CC(=O)O[C@H]1C)C[C@H](O)[C@H]2C(=O)O [AMPHOTERICIN B]
MIC (Candida albicans [3]): 1 µg/mL (≈ 1.08 µM)
MIC (Candida albicans [4]): 1 µg/mL (≈ 1.08 µM)
MIC (Candida albicans [5]): 1 µg/mL (≈ 1.08 µM)
MIC ([Candida] auris [6]): 0.5 µg/mL (≈ 0.541 µM)
MIC ([Candida] auris [7]): 1 µg/mL (≈ 1.08 µM)
MIC ([Candida] auris [8]): 2 µg/mL (≈ 2.16 µM)
MIC (Nakaseomyces glabratus [9]): 2 µg/mL (≈ 2.16 µM)
MIC (Nakaseomyces glabratus [10]): 1 µg/mL (≈ 1.08 µM)
MIC (Candida parapsilosis [11]): 0.5 µg/mL (≈ 0.541 µM)
MIC (Candida parapsilosis [12]): 0.5 µg/mL (≈ 0.541 µM)
MIC (Pichia kudriavzevii [13]): 2 µg/mL (≈ 2.16 µM)
MIC (Pichia kudriavzevii [14]): 2 µg/mL (≈ 2.16 µM)
MIC (Cryptococcus neoformans [15]): 1 µg/mL (≈ 1.08 µM)
MIC (Cryptococcus neoformans [16]): 1 µg/mL (≈ 1.08 µM)
MIC (Cryptococcus neoformans [17]): 1 µg/mL (≈ 1.08 µM)
MIC [18]: 1 µg/mL (≈ 1.08 µM)
MIC [19]: 1 µg/mL (≈ 1.08 µM)
MIC (Lactobacillus gasseri): > 128 µg/mL
MIC (Lacticaseibacillus casei): > 128 µg/mL
MIC (Lactobacillus crispatus): > 128 µg/mL
CC50 at 2 h [20]: 8 µg/mL (≈ 8.66 µM)
Activity (Candida albicans [21]): 100%
Activity (Vero): Toxic
MIC (Candida albicans [22]): 1 µg/mL (≈ 1.08 µM)

OC(Cn1cncn1)(Cn1cncn1)c1ccc(F)cc1F [FLUCONAZOLE]
MIC (Candida albicans [3]): > 64 µg/mL
MIC (Candida albicans [4]): 1 µg/mL (≈ 3.27 µM)
MIC (Candida albicans [5]): > 128 µg/mL
MIC ([Candida] auris [6]): 2 µg/mL (≈ 6.53 µM)
MIC ([Candida] auris [7]): 128 µg/mL (≈ 418 µM)
MIC ([Candida] auris [8]): > 128 µg/mL
MIC (Nakaseomyces glabratus [9]): 8 µg/mL (≈ 26.1 µM)
MIC (Nakaseomyces glabratus [10]): 16 µg/mL (≈ 52.2 µM)
MIC (Candida parapsilosis [11]): 1 µg/mL (≈ 3.27 µM)
MIC (Candida parapsilosis [12]): 0.5 µg/mL (≈ 1.63 µM)
MIC (Pichia kudriavzevii [13]): 16 µg/mL (≈ 52.2 µM)
MIC (Pichia kudriavzevii [14]): 16 µg/mL (≈ 52.2 µM)
MIC (Cryptococcus neoformans [15]): 2 µg/mL (≈ 6.53 µM)
MIC (Cryptococcus neoformans [16]): 1 µg/mL (≈ 3.27 µM)
MIC (Cryptococcus neoformans [17]): 2 µg/mL (≈ 6.53 µM)
MIC [18]: 4 µg/mL (≈ 13.1 µM)
MIC [19]: 4 µg/mL (≈ 13.1 µM)
MIC (Aspergillus fumigatus [23]): > 64 µg/mL
MIC (Aspergillus fumigatus [24]): > 64 µg/mL
MIC (Lactobacillus gasseri): > 128 µg/mL
MIC (Lacticaseibacillus casei): > 128 µg/mL
MIC (Lactobacillus crispatus): > 128 µg/mL
inhibition (INH) (Candida albicans [25]): 50%
Activity (Candida albicans [26]): inactive
Activity (Candida albicans [27]): Active
Activity (Candida albicans [28]): Active
MIC (Candida albicans [22]): 1 µg/mL (≈ 3.27 µM)

CCC(C)n1ncn(-c2ccc(N3CCN(c4ccc(OCC5COC(Cn6cncn6)(c6ccc(Cl)cc6Cl)O5)cc4)CC3)cc2)c1=O (configuration not stated) [ITRACONAZOLE]
MIC (Aspergillus fumigatus [23]): 1 µg/mL (≈ 1.42 µM)
MIC (Aspergillus fumigatus [24]): 1 µg/mL (≈ 1.42 µM)

Cc1nc(-c2ccc(C(C)(C)C)cc2)sc1-c1nnc(NC[C@@H](O)CO)o1
MIC (Staphylococcus aureus): > 64 µg/mL
MIC (Escherichia coli [1]): > 64 µg/mL
MIC (Escherichia coli [2]): > 64 µg/mL
MIC (Clostridioides difficile): 32 µg/mL (≈ 82.4 µM)
MIC (Candida albicans [3]): > 64 µg/mL

Cc1nc(-c2ccc(C(C)(C)C)cc2)sc1-c1nnc(NCCN)o1
MIC (Staphylococcus aureus): 8 µg/mL (≈ 22.4 µM)
MIC (Escherichia coli [1]): > 64 µg/mL
MIC (Escherichia coli [2]): > 64 µg/mL
MIC (Clostridioides difficile): > 64 µg/mL
MIC (Candida albicans [3]): 32 µg/mL (≈ 89.5 µM)

CC(=O)NC[C@H]1CN(c2ccc(N3CCOCC3)c(F)c2)C(=O)O1 [LINEZOLID]
MIC (Staphylococcus aureus): 1 µg/mL (≈ 2.96 µM)
MIC (Escherichia coli [1]): 8 µg/mL (≈ 23.7 µM)
MIC (Escherichia coli [2]): > 64 µg/mL
MIC (Clostridioides difficile): 1 µg/mL (≈ 2.96 µM)

Cc1nc(-c2ccc(C(C)(C)C)cc2)sc1-c1nnc(N2CC[C@H](N(C)C)C2)o1
MIC (Staphylococcus aureus): > 64 µg/mL
MIC (Escherichia coli [1]): > 64 µg/mL
MIC (Escherichia coli [2]): > 64 µg/mL
MIC (Clostridioides difficile): 32 µg/mL (≈ 77.8 µM)
MIC (Candida albicans [3]): > 64 µg/mL

Cc1nc(-c2ccc(C(C)(C)C)cc2)sc1-c1nnc(N2CC[C@@H](N(C)C)C2)o1
MIC (Staphylococcus aureus): > 64 µg/mL
MIC (Escherichia coli [1]): > 64 µg/mL
MIC (Escherichia coli [2]): > 64 µg/mL
MIC (Clostridioides difficile): > 64 µg/mL
MIC (Candida albicans [3]): > 64 µg/mL
